This is an account of results in ChEMBL document CHEMBL5143744, “Discovery of Tenapanor: A First-in-Class Minimally Systemic Inhibitor of Intestinal Na+/H+ Exchanger Isoform 3” (ACS Med Chem Lett, 2022).

SMILES strings stand for the structures. Calls of active or inactive are those of the source. The calls are words filed in the database; no cut-off is given here.

For series [1], the target named is T1, Sodium/hydrogen exchanger 3 (Homo sapiens, UniProt P48764).
T1 sequence (P48764 whole entry): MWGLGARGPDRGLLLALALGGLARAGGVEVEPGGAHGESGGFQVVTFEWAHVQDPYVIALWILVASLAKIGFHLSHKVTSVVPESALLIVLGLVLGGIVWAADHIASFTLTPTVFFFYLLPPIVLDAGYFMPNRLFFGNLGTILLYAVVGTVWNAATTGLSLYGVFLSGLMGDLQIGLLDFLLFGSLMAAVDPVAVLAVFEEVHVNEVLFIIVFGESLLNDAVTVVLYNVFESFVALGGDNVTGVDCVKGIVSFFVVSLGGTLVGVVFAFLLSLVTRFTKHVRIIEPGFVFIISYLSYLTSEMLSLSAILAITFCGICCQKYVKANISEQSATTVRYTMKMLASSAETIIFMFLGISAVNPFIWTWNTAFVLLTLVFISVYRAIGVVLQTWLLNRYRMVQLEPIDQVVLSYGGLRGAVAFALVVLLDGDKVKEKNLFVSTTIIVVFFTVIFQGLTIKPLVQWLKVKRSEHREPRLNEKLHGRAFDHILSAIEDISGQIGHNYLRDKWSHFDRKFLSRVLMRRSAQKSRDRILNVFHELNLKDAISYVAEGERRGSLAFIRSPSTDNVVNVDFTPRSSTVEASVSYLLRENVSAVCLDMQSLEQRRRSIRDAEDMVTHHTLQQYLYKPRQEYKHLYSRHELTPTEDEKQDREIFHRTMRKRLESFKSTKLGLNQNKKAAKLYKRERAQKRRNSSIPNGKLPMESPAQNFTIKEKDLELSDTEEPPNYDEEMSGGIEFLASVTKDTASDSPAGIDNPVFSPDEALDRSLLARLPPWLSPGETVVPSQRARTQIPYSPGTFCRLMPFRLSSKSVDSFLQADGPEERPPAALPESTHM
Description: Inhibition of human NHE3 expressed in opossum kidney cells assessed as reduction in Na-HEPES buffer-mediated pH recovery in presence of NEH1 inhibitor ethyl isopropyl amiloride by BCECF-AM dye based fluorescence assay. Format: cell-based, Kidney epithelial cell.

A short description of series [2]: In vivo inhibition of NEH3 in Sprague-Dawley rat assessed as sodium excretion in urine at 3 mg/kg, po administered via gavage measured after 16 hrs by ion chromatography relative to control. The arrangement: scale not given: the % may be the effect or the level left.
Series [3] in a line: Cmax in Sprague-Dawley rat at 11 mg/kg, po administered via gavage by LC-MS/MS analysis. Format: ADME, organism-based. The arrangement: dose 11 mg/kg, route po. To be noted: in vivo.
Series [4] is described as follows: AUC in Sprague-Dawley rat at 11 mg/kg, po administered via gavage by LC-MS/MS analysis. The settings on record: in vivo.
Series [5] in a line: In vivo inhibition of NEH3 in Sprague-Dawley rat assessed as fecal form score at 3 mg/kg, po administered via gavage measured after 6 hrs. Format: functional.
A short description of series [6]: In vivo inhibition of NEH3 in Sprague-Dawley rat assessed as fecal water content at 3 mg/kg, po administered via gavage measured after 6 hrs. Format: functional. The arrangement: scale not given: the % may be the effect or the level left.
Series [7] is described as follows: In vivo inhibition of NEH3 in Sprague-Dawley rat assessed as increase in fecal water content at 0.1 to 3 mg/kg, po administered via gavage measured after 6 hrs. Format: functional. The arrangement: scale not given: the % may be the effect or the level left. To be noted: dose 0.1-3 mg/kg.
Series [8] is described as follows: Drug metabolism in Sprague-Dawley rat at 30 mg/kg, po administered via gavage by LC-MS/MS analysis. Format: ADME, organism-based. To be noted: in vivo.
Series [9] is described as follows: Cmax in Sprague-Dawley rat at 30 mg/kg, po administered via gavage by LC-MS/MS analysis. To be noted: in vivo. The arrangement: dose 30 mg/kg, route po. Format: ADME, organism-based.
Another series relates to Rattus norvegicus. Put plainly: In vivo inhibition of NEH3 in Sprague-Dawley rat assessed as reduction in sodium excretion in urine at 0.1 to 3 mg/kg, po administered via gavage measured after 16 hrs by ion chromatography. Format: functional, organism-based. To be noted: dose 0.1-3 mg/kg.
Another series has as its target hERG (KCNH2) (Homo sapiens, UniProt Q12809). Put plainly: Inhibition of human ERG at 10 uM relative to control. Format: toxicity.
Series [10] in a line: Drug recovery in Sprague-Dawley rat feces at 0.1 mg/kg, po administered via gavage measured after 72 hrs by LC-MS/MS analysis. Format: ADME, organism-based. The settings on record: faeces, read-out: Drug recovery.
Series [11] in a line: Drug metabolism in Sprague-Dawley rat feces at 0.1 mg/kg, po administered via gavage measured after 72 hrs by LC-MS/MS analysis. Format: ADME, organism-based. To be noted: in vivo.
Series [12] in a line: Drug metabolism in Sprague-Dawley rat feces at 3 mg/kg, po administered via gavage measured after 64 hrs by LC-MS/MS analysis. To be noted: in vivo. Format: ADME, organism-based.
A short description of series [13]: Drug recovery in Sprague-Dawley rat feces at 3 mg/kg, po administered via gavage measured after 64 hrs by LC-MS/MS analysis. Format: ADME, organism-based. The settings on record: faeces, read-out: Drug recovery.
The target of series [14] is Sodium/hydrogen exchanger 3 (Rattus norvegicus, UniProt P26433). Description: Inhibition of rat NHE3 expressed in opossum kidney cells assessed as reduction in Na-HEPES buffer-mediated pH recovery in presence of NEH1 inhibitor ethyl isopropyl amiloride by BCECF-AM dye based fluorescence assay. Format: cell-based, Kidney epithelial cell.
Sequence of Sodium/hydrogen exchanger 3 (Rattus norvegicus, UniProt P26433) (P26433 whole entry): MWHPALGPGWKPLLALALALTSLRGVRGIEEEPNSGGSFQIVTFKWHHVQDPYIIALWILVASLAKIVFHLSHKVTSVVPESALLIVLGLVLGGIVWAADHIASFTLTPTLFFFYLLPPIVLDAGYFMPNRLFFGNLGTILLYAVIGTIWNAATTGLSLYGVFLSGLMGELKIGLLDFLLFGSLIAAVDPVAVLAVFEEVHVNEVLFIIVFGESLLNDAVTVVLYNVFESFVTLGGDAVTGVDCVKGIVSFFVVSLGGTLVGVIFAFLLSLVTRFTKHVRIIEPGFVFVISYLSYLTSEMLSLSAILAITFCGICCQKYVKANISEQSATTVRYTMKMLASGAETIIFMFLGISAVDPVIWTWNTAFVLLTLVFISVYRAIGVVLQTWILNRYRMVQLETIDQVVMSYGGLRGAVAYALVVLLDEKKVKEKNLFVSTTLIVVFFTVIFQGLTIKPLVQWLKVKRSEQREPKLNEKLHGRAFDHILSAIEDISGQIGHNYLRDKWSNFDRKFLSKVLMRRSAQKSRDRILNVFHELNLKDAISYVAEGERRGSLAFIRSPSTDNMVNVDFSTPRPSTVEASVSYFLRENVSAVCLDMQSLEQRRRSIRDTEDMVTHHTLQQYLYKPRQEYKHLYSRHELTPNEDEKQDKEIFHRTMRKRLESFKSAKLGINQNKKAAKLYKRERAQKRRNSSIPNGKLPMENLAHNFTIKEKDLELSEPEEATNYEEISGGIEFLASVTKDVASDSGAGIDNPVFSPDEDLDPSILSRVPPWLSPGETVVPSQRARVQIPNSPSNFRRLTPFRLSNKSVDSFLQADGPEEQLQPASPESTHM

Sequence of hERG (KCNH2) (Q12809 whole entry): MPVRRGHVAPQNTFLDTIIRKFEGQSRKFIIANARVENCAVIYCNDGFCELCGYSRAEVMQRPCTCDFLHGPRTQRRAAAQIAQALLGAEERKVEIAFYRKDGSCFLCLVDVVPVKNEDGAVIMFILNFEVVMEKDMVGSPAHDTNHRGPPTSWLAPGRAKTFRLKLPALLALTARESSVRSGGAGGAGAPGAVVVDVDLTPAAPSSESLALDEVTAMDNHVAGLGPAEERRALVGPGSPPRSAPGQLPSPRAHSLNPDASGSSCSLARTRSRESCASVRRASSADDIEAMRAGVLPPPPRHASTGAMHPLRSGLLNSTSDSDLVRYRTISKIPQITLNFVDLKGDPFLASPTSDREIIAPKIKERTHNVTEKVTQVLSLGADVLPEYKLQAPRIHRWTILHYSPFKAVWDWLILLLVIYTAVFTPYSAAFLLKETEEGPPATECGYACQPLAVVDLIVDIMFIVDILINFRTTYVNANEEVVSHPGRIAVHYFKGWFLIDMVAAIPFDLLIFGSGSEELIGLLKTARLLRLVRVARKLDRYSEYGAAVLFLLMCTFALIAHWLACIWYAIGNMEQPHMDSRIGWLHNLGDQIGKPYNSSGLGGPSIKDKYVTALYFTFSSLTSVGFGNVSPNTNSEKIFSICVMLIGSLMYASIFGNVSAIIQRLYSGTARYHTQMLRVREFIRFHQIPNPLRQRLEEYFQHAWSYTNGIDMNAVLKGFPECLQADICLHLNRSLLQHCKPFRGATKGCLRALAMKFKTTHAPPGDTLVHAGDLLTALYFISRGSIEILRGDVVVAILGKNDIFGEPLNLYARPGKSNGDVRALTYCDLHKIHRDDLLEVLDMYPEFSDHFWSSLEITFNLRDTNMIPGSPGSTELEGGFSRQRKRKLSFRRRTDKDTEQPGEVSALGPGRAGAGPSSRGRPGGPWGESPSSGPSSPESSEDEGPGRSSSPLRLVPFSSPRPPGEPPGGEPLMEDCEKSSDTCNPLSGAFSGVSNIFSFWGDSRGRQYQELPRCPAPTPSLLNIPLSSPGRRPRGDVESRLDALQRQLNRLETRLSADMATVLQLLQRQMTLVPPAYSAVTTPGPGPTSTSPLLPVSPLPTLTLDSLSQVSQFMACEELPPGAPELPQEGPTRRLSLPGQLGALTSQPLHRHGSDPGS

One may read the IC50 as the point on the concentration scale where inhibition reaches its midpoint. For orientation: Cmax means the maximum level reached in the sampled fluid or tissue. Broadly, the AUC is concentration integrated over time. For the compound `CN1Cc2c(Cl)cc(Cl)cc2C(c2cccc(S(=O)(=O)NCCOCCOCCNC(=O)NCCOCCOCCNS(=O)(=O)c3cccc(C4CN(C)Cc5c(Cl)cc(Cl)cc54)c3)c2)C1` (centres undefined), the IC50 in series [1] was 2000 nM. The Activity in series [2] is 100%; in [5] it was 1; in series [6], 50%. For the same compound, in series [3], the maximum concentration (Cmax) was < 5 ng/mL. In addition, in series [4], the area under the curve (AUC) is < 19 ng·h/mL.

As a reminder, the inhibition is the change of the read-out against control, counted positive when it falls. Regarding `CN1Cc2c(Cl)cc(Cl)cc2[C@H](c2cccc(S(=O)(=O)NCCOCCOCCNC(=O)Nc3ccc(NC(=O)NCCOCCOCCNS(=O)(=O)c4cccc([C@@H]5CN(C)Cc6c(Cl)cc(Cl)cc65)c4)cc3)c2)C1`, the Activity in series [7] stood at 10%. The Drug metabolism result in series [8] and in series [11] was “Metabolite_Notdetected” each time. For the same compound, the Cmax in [9] is < 2 ng/mL. Moreover, the IC50 in series [1] is 1.58 nM. Besides, the inhibition entry with Rattus norvegicus was “Active”. Further, the inhibition at 10 µM on hERG (KCNH2) was < 50%. For the same compound, the dose excreted at 72 h in series [10] came out at 93%.

For `CN1Cc2c(Cl)cc(Cl)cc2[C@H](c2cccc(S(=O)(=O)NCCOCCOCCNC(=O)CCC(=O)NCCOCCOCCNS(=O)(=O)c3cccc([C@@H]4CN(C)Cc5c(Cl)cc(Cl)cc54)c3)c2)C1`, in series [7], the Activity is on record as 10%. The Drug metabolism result in series [8] and in series [11] was “Metabolite_Notdetected” in each case. The Cmax in series [9] (Sprague-Dawley, read-out: Cmax) was < 2 ng/mL. Moreover, the inhibition entry in the series with Rattus norvegicus is “Active”. Also, the inhibition at 10 µM against hERG (KCNH2) was < 50%. For the same compound, in [10], the dose excreted at 72 h stood at 46%.

Turning to `CN1Cc2c(Cl)cc(Cl)cc2[C@H](c2cccc(S(=O)(=O)NCCOCCOCCOCCNC(=O)NCCOCCOCCOCCNS(=O)(=O)c3cccc([C@@H]4CN(C)Cc5c(Cl)cc(Cl)cc54)c3)c2)C1`, the Activity in series [7] is given as 10%. The Drug metabolism entry in [8] is “Metabolite_Notdetected”; in series [12] it was “Metabolite_Detected”. Besides, the Cmax in series [9] (Sprague-Dawley, read-out: Cmax) is < 5 ng/mL. Besides, the inhibition entry in the series with Rattus norvegicus is “Active”. Further, the inhibition at 10 µM against hERG (KCNH2) is < 50%. Further, in series [13], the dose excreted at 64 h came out at 82%.

Take `CN1Cc2c(Cl)cc(Cl)cc2[C@@H](c2cccc(NC(=O)[C@H](O)[C@@H](O)[C@H](O)[C@H](O)CO)c2)C1`: the values for the half-maximal inhibitory concentration (IC50) in [1] and in series [14] were 2510 nM and 7940 nM, respectively.

As to `CN1Cc2c(Cl)cc(Cl)cc2[C@H](c2cccc(S(=O)(=O)NCCOCCOCCOCCNC(=O)NCCCNC(=O)NCCOCCOCCOCCNS(=O)(=O)c3cccc([C@@H]4CN(C)Cc5c(Cl)cc(Cl)cc54)c3)c2)C1`, the Drug metabolism entry in series [8] and in [12] was “Metabolite_Notdetected” throughout. Moreover, the Cmax in [9] (Sprague-Dawley, read-out: Cmax) was < 15 ng/mL. The inhibition at 10 µM at hERG (KCNH2) is < 50%. Moreover, the dose excreted at 64 h in series [13] was found to be 96%.

On to `CN1Cc2c(Cl)cc(Cl)cc2C(c2cccc(NC(=O)[C@H](O)[C@@H](O)[C@H](O)[C@H](O)CO)c2)C1` (mixture of isomers), for which the IC50 in series [1] was 50.1 nM; in series [14], 39.8 nM.

Turning to `CN1Cc2c(Cl)cc(Cl)cc2C(c2cccc(S(=O)(=O)NCCOCCOCCNC(=O)NCCCCNC(=O)NCCOCCOCCNS(=O)(=O)c3cccc(C4CN(C)Cc5c(Cl)cc(Cl)cc54)c3)c2)C1` (racemic), the Activity in series [2] is 22%; in series [5] it was 4.5; in series [6], 64%. The IC50 in series [14] is 3.16 nM.

`CN1Cc2c(Cl)cc(Cl)cc2C(c2cccc(S(=O)(=O)NCCOCCOCCNC(=O)Nc3ccc(NC(=O)NCCOCCOCCNS(=O)(=O)c4cccc(C5CN(C)Cc6c(Cl)cc(Cl)cc65)c4)cc3)c2)C1` (racemic): the figures for the Activity in series [2], in series [5] and in series [6] were 32%, 3 and 60%, respectively. Also, the 50% inhibitory concentration (IC50) in [14] was 7.94 nM.

For `CN1Cc2c(Cl)cc(Cl)cc2C(c2ccc(S(=O)(=O)NCCOCCOCCNC(=O)Nc3ccc(NC(=O)NCCOCCOCCNS(=O)(=O)c4ccc(C5CN(C)Cc6c(Cl)cc(Cl)cc65)cc4)cc3)cc2)C1` (racemic), the Activity in series [2] stood at 29%; in series [5], 3; in series [6] it was 58%.

For `CN1Cc2c(Cl)cc(Cl)cc2C(c2ccc(S(=O)(=O)NCCOCCOCCNC(=O)COCC(=O)NCCOCCOCCNS(=O)(=O)c3ccc(C4CN(C)Cc5c(Cl)cc(Cl)cc54)cc3)cc2)C1` (racemic), the values for the Activity in [2], in [5] and in series [6] were 29%, 2.5 and 59%, respectively.

Turning to `CN1Cc2c(Cl)cc(Cl)cc2C(c2cccc(S(=O)(=O)NCCCS(=O)(=O)O)c2)C1` (racemic), the results for the 50% inhibitory concentration (IC50) in series [1] and in series [14] were 1580 nM and 50.1 nM, respectively.

Take `CN1Cc2c(Cl)cc(Cl)cc2C(c2ccc(S(=O)(=O)NCCOCCOCCNC(=O)CCC(=O)NCCOCCOCCNS(=O)(=O)c3ccc(C4CN(C)Cc5c(Cl)cc(Cl)cc54)cc3)cc2)C1` (racemic): the values for the Activity in series [2], in series [5] and in series [6] were 23%, 3.5 and 60%, respectively.

Consider `CN1Cc2c(Cl)cc(Cl)cc2C(c2cccc(S(=O)(=O)NCCOCCOCCOCCNC(=O)NCCCCNC(=O)NCCOCCOCCOCCNS(=O)(=O)c3cccc(C4CN(C)Cc5c(Cl)cc(Cl)cc54)c3)c2)C1` (racemic), for which the Activity in series [2] was found to be 50%; in series [5], 3; in [6] it was 57%.

As to `CN(CC(=O)NCCOCCOCCNS(=O)(=O)c1ccc(C2CN(C)Cc3c(Cl)cc(Cl)cc32)cc1)CC(=O)NCCOCCOCCNS(=O)(=O)c1ccc(C2CN(C)Cc3c(Cl)cc(Cl)cc32)cc1` (racemic), the Activity in series [2] is listed as 45%; in series [5], 3; in series [6], 57%.

For `CN1Cc2c(Cl)cc(Cl)cc2C(c2cccc(S(=O)(=O)NCCOCCOCCNS(=O)(=O)c3cccc(C4CN(C)Cc5c(Cl)cc(Cl)cc54)c3)c2)C1` (racemic), in series [1], the concentration for half-maximal inhibition (IC50) was 5010 nM.

On to `CN1Cc2c(Cl)cc(Cl)cc2C(c2cccc(S(=O)(=O)NCC(=O)O)c2)C1` (racemic), for which the IC50 in series [1] and in [14] was 100 nM each time.

As to `CN1Cc2c(Cl)cc(Cl)cc2C(c2ccc(S(=O)(=O)NCCOCCOCCNC(=O)NCCCCNC(=O)NCCOCCOCCNS(=O)(=O)c3ccc(C4CN(C)Cc5c(Cl)cc(Cl)cc54)cc3)cc2)C1` (racemic), the Activity in series [2] is 14%; in series [5] it was 3; in series [6], 60%.

With `CN1Cc2c(Cl)cc(Cl)cc2C(c2cccc(S(=O)(=O)NCCOCCOCCOCCNC(=O)Nc3ccc(NC(=O)NCCOCCOCCOCCNS(=O)(=O)c4cccc(C5CN(C)Cc6c(Cl)cc(Cl)cc65)c4)cc3)c2)C1` (racemic), the Activity came out at 42% in series [2], 2 in [5] and 54% in series [6]. In addition, the IC50 in [14] was 6310 nM.

Take `CN1Cc2c(Cl)cc(Cl)cc2C(c2cccc(S(=O)(=O)NCCCP(=O)(O)O)c2)C1` (racemic): the concentration for half-maximal inhibition (IC50) in [1] is 5010 nM; in series [14], 63.1 nM.
